Tests used:
TNF-alpha = assay: Eurofins radioligand binding panel; design: species or system human; conditions: agonist radioligand
Excerpt: (§1) Table S1. Eurofins Lead Profiling Screen Data
(§2) This is a radioligand binding panel of 80 targets including GPCRs, ion channels, transporters and nuclear hormones. Biochemical assay results are presented as the percent inhibition of specific […]
(§3) Results showing an inhibition or stimulation higher than 50% are considered to represent significant effect and are highlighted

sigma (non-selective) = assay: Eurofins radioligand binding panel; design: species or system human; conditions: agonist radioligand
Excerpt: as §1, §2, §3

Sprague–Dawley rats = assay: spontaneous locomotion; type: in vivo; conditions: rat, doses up to 10 mg/kg p.o.
Protocol: In order to enable our target validation work, we first profiled PAM 19d in a rat locomotor battery to ensure that pharmacodynamic efficacy was not mistaken for gross effects on locomotion.[20] […] PK was performed in parallel to establish a PK/PD relationship.[24]
Adult male Sprague–Dawley rats were administered VU6024578 (1–10 mg/kg p.o.) or vehicle and were tested in the […]. Seventy minutes later the animals were placed into the activity chambers (Med Associates) for 30 min.

EP4 = target: T1, EP4 (Homo sapiens, UniProt P35408); assay: Eurofins radioligand binding panel; conditions: agonist radioligand
T1 construct: Eurofins
T1 sequence (P35408 whole entry): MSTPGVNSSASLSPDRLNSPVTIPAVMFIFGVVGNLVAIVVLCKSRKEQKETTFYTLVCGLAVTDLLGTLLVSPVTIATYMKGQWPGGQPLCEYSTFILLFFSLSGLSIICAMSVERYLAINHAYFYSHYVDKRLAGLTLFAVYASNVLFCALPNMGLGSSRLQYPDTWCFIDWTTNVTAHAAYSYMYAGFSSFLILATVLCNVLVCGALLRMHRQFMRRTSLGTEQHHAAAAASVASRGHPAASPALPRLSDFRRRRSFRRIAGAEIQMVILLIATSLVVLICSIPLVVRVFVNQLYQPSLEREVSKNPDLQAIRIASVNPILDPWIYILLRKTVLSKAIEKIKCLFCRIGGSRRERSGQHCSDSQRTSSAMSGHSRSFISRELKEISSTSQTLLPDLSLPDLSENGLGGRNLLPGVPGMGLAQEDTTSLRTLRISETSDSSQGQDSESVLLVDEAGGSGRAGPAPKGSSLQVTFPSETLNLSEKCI
Excerpt: as §1, §2
(§4) Results showing an inhibition or stimulation higher than 50% are considered to represent significant effect and are highlighted […]
(§5) Target / Protein Species % Inhibition at 10
(§6) Adenosine A1 (antagonist radioligand) human 8
(§7) Adenosine A2A (agonist radioligand) human -1
(§8) Adenosine A3 (agonist radioligand) human 23
(§9) Adrenergic alpha 1 (non-selective) (antagonist radioligand) rat 19
(§10) Adrenergic alpha 2 (non-selective) (antagonist radioligand) rat 1
(§11) Adrenergic beta 1 (agonist radioligand) human 1
(§12) Adrenergic beta 2 (antagonist radioligand) human -1
(§13) AT1 (antagonist radioligand) human -1
(§14) AT2 (agonist radioligand) human 2 […]
(§15) BB (non-selective) (agonist radioligand) rat -20
(§16) B2 (agonist radioligand) human 7
(§17) CGRP (agonist radioligand) human 1
(§18) CB1 (agonist radioligand) human 0
(§19) CCK1 (CCKA) (agonist radioligand) human 7
(§20) CCK2 (CCKB) (agonist radioligand) human -4

5-HT1A = target: T2, 5-HT1A (Homo sapiens, UniProt P08908); assay: Eurofins radioligand binding panel; conditions: agonist radioligand
T2 construct: Eurofins
T2 sequence (P08908 whole entry): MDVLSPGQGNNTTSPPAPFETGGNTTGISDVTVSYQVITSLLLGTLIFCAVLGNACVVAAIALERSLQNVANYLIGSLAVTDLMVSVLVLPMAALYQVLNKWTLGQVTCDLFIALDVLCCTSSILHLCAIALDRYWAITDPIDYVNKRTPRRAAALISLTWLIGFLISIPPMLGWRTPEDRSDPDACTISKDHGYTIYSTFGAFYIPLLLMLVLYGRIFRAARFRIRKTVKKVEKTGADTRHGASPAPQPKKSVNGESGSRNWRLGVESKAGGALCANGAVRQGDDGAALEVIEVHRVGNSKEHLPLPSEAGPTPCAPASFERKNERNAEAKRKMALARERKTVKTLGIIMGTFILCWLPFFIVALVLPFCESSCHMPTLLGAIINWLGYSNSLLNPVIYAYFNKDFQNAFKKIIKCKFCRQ
Excerpt: as §1, §2, §4, §5, §6, §7, §8, §9, §10, §11, §12, §13, §14, §15, §16, §17, §18, §19, §20

[1] = metabolite identification; type: in vitro ADME; conditions: ± NADPH; for metabolites of the furanyl ring: 60 min; for parent in 60 min samples: UV peak areas
Protocol: Across species, 19d had acceptable fraction unbound in both plasma (fu (plasma): 0.03 (human), 0.041 (rat), 0.025 (cyno), 0.039 (dog) and 0.056 (mouse)) and brain (fu (brain): 0.034 (rat) and 0.081 (mouse)).
Figure 5 Metabolite identification of VU6024578 (19d) in rat and human liver microsomes. […] Thus, we incubated 19d in rat and human liver microsomes (with and without NADPH) for 60 min and monitored by both extracted ion and UV detection for the production of metabolites and consumption of parent.

Cn1nc(-c2ccnn2C)cc1CNC(=O)c1cc(-c2ccco2)ccc1Cl [Compound 19d, 2-Chloro-N-((1,2′-dimethyl-1H,2’H-[3,3′-bipyrazol]-5-yl)methyl)-5-(furan-2-yl)benzamide]
% Inhibition at 10 µM (TNF-alpha): 2%
% Inhibition at 10 µM (sigma (non-selective)): -11%
spontaneous locomotion (Sprague–Dawley rats): lack of effect
inhibition at 10 µM (EP4): 62%
inhibition at 10 µM (5-HT1A): 51%
metabolites of the furanyl ring ([1]; human liver microsomes): no metabolites corresponding to oxidation or opening of the furanyl ring were detected
parent in 60 min samples ([1]; human liver microsomes): major component observed
metabolites of the furanyl ring ([1]; rat liver microsomes): no metabolites corresponding to oxidation or opening of the furanyl ring were detected
parent in 60 min samples ([1]; rat liver microsomes): major component observed
